Among the data in patent publication US11492335B2, “Aryl or heteroaryl triazolone derivatives or salts thereof, or pharmaceutical compositions comprising the same” (YUHAN CORPORATION, priority 2018, dated 2022) are IC50 values, retold here.

Counter-ions that a name gives are not always drawn. Like-named read-outs stand apart in the source and are kept apart here.

What all share (format): biochemical
In assay [1] the target is T1, recombinant human MAO-B (monoamine oxidase-B) (Homo sapiens, UniProt P27338).
T1 construct: purchased Sigma-Aldrich
T1 sequence (P27338 1-520): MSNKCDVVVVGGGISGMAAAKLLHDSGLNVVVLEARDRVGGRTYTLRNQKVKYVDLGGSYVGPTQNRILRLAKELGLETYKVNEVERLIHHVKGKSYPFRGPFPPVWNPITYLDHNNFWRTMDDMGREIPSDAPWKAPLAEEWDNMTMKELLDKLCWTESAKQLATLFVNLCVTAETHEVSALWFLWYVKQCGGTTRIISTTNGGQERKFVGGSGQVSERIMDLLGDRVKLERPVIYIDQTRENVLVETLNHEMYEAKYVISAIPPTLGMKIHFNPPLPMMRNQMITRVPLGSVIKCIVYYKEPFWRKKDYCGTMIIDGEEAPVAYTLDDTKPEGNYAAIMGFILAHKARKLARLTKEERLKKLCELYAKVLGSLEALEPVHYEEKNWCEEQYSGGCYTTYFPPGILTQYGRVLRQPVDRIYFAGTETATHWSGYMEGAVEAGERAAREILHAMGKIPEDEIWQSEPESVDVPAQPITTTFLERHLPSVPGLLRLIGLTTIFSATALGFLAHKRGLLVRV
In words: Activity on recombinant human MAO-B, Amplex Red method, 1 mM benzylamine substrate. Conditions: read-out: Inhibitory Activity (IC50, nM) MAO-B. An outline of the steps: (§1)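 8-point, 1:3 dose-response, four-parameter logistic IC50 from reduction in fluorescence rate versus DMSO control. HRP/Amplex Red detection of H2O2 (ex 544, em 590 nm) after 30 min, 37 °C compound–enzyme preincubation in pH 7.4 phosphate buffer. MAO-A substrate: 0.5 mM tyramine; MAO-B: 1 mM benzylamine.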

A further assay deals with T2, recombinant human VAP-1 (Homo sapiens, UniProt Q16853).
T2 construct: purchased R&D systems
T2 sequence (Q16853 1-763): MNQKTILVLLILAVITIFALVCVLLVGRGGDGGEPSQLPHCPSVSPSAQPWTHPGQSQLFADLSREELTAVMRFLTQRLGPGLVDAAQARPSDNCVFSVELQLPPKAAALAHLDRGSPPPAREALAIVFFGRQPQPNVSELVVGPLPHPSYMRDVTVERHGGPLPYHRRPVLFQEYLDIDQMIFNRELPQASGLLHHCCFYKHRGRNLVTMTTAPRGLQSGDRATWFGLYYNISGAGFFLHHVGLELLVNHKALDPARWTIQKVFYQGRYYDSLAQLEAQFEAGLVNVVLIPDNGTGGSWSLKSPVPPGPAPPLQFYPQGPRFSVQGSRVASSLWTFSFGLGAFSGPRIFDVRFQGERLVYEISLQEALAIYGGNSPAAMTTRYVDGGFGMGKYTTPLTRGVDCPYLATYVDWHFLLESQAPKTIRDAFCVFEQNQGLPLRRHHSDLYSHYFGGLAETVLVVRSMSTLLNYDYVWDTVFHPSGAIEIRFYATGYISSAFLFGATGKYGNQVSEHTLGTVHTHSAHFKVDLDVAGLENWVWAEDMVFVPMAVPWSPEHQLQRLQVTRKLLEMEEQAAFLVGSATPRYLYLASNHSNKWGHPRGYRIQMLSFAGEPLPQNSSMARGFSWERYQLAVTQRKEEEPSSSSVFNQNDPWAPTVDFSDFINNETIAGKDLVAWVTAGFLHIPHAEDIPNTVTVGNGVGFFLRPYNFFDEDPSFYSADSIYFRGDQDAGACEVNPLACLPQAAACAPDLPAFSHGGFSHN
The assay can be described thus: Activity on recombinant human VAP-1, Amplex Red HRP-coupled hydrogen peroxide assay, benzylamine substrate. The settings on record: recombinant human VAP-1, benzylamine substrate, read-out: Inhibitory Activity (IC50, nM) human VAP-1. An outline of the steps: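 Compounds were preincubated with purified enzyme in 50 mM sodium phosphate pH 7.4 at 37 °C for 30 min, then 200 uM Amplex Red, 1 mM benzylamine and 1 U/mL HRP were added. Resorufin fluorescence (ex 544/em 590 nm) was followed over 1-2 h; IC50 came from 4-parameter fits of signal-rate inhibition.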

Assay [2] concerns the target T3, recombinant human MAO-A (monoamine oxidase-A) (Homo sapiens, UniProt P21397).
T3 construct: purchased Sigma-Aldrich
T3 sequence (P21397 1-527): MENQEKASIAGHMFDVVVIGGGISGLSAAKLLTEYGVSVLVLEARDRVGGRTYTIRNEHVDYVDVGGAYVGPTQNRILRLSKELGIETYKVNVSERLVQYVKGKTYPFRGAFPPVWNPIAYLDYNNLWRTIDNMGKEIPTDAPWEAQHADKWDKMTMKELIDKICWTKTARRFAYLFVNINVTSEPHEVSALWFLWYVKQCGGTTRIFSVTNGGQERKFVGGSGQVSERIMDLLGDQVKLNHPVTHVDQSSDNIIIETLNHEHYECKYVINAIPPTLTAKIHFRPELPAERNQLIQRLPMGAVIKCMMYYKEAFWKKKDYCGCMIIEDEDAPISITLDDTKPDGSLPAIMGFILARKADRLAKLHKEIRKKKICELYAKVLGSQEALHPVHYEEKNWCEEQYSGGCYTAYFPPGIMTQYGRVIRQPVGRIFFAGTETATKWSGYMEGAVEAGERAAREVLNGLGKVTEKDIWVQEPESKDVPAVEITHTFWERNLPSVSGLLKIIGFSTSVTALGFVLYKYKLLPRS
In words: Activity on recombinant human MAO-A, Amplex Red method, 0.5 mM tyramine substrate. Conditions: read-out: Inhibitory Activity (IC50, nM) MAO-A. An outline of the steps: as §1

The target in assay [3] is T4, recombinant human DAO (diamine oxidase) (Homo sapiens, UniProt P19801).
T4 construct: purchased R&D systems
T4 sequence (P19801 20-751): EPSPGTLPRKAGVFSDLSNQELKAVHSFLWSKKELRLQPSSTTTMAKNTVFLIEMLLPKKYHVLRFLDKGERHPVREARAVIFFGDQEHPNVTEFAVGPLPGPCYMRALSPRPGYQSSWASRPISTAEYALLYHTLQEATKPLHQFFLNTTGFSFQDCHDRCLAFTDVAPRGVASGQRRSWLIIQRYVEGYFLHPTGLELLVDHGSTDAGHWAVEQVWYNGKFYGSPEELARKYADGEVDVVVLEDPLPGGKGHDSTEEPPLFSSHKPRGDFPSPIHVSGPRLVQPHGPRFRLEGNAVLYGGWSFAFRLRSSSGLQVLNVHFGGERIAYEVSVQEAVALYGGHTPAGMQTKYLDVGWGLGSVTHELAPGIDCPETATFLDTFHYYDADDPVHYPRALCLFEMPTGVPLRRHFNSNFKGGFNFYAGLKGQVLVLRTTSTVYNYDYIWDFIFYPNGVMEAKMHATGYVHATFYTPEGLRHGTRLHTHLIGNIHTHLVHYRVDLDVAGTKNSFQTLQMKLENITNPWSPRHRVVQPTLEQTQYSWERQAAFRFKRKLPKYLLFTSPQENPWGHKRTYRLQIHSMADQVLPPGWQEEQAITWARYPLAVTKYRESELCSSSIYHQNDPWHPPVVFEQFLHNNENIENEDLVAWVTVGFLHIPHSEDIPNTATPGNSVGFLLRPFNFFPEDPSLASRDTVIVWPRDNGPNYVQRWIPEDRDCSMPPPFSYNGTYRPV
In words: Activity on recombinant human DAO, Amplex Red method, 1 mM putrescine substrate. Conditions: recombinant human DAO, read-out: Inhibitory Activity (IC50, nM) DAO. An outline of the steps: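 Inhibition of recombinant human DAO (diamine oxidase, R&D systems) was assessed with the Amplex Red Hydrogen Peroxide Assay Kit. Hydrogen peroxide produced from 1 mM putrescine was detected through an HRP-coupled reaction that converts Amplex Red into fluorescent resorufin, read at 544 nm excitation and 590 nm emission. IC50 values came from four-parameter logistic fits in GraphPad Prism.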

The mark [4] stands for this setting: 1 mM putrescine, * = between 10 and 100 nM, ** = between 300 and 1000 nM.

In general, IC50 refers to the concentration needed to halve the response being measured. Take `NC/C(=C\F)Cn1ncn(-c2cc(-c3ccc4c(c3)OCO4)ccn2)c1=O` [Example 170, 2-[(2E)-2-(aminomethyl)-3-fluoroprop-2-en-1-yl]-4-[4-(1,3-benzodioxol-5-yl)pyridin-2-yl]-2,4-dihydro-3H-1,2,4-triazol-3-one]: the half-inhibitory concentration (IC50) in assay [1] (1 mM benzylamine substrate) was 235 nM; on recombinant human VAP-1, 0.74 nM; in assay [2] (0.5 mM tyramine substrate), more than 100000 nM; in assay [3] (1 mM putrescine substrate, bound qualified by footnote * / **) it was less than 100 nM.

For `Cc1cc(-c2ccc3c(c2)NC(=O)OC3)cnc1-n1cnn(C/C(=C/F)CN)c1=O` [Example 156, 7-(6-{1-[(2E)-2-(aminomethyl)-3-fluoroprop-2-en-1-yl]-5-oxo-1,5-dihydro-4H-1,2,4-triazol-4-yl}-5-methylpyridin-3-yl)-1,4-dihydro-2H-3,1-benzoxazin-2-one hydrochloride], the IC50 is 26000 nM in assay [1] (1 mM benzylamine substrate), 0.3 nM on recombinant human VAP-1, more than 100000 nM in assay [2] (0.5 mM tyramine substrate) and 38 nM in assay [3] (1 mM putrescine substrate).

For `CC(C)c1nc(-c2ccc(-c3cc(-n4cnn(C/C(=C/F)CN)c4=O)ccn3)cc2)no1` [Example 205, 2-[(2E)-2-(aminomethyl)-3-fluoroprop-2-en-1-yl]-4-(2-{4-[5-(propan-2-yl)-1,2,4-oxadiazol-3-yl]phenyl}pyridin-4-yl)-2,4-dihydro-3H-1,2,4-triazol-3-one hydrochloride], the half-maximal inhibitory concentration (IC50) is 240 nM in assay [1] (1 mM benzylamine substrate), 1 nM on recombinant human VAP-1, more than 100000 nM in assay [2] (0.5 mM tyramine substrate) and less than 10 nM in assay [3] (1 mM putrescine substrate).

Consider `Cc1cc(-c2ccc(-c3noc(C4CC4)n3)cc2)cnc1-n1cnn(C/C(=C/F)CN)c1=O` [Example 141, 2-[(2E)-2-(aminomethyl)-3-fluoroprop-2-en-1-yl]-4-{5-[4-(5-cyclopropyl-1,2,4-oxadiazol-3-yl)phenyl]-3-methylpyridin-2-yl}-2,4-dihydro-3H-1,2,4-triazol-3-one hydrochloride], for which the IC50 in assay [1] (1 mM benzylamine) was 7090 nM; on recombinant human VAP-1 (30 min preincubation at 37° C.), 0.88 nM; in assay [2] (0.5 mM tyramine), more than 100000 nM; in assay [3] (setting [4]) it was 110 nM.

With `NC/C(=C\F)Cn1ncn(-c2cccc(-c3ccc(-c4cnon4)cc3)n2)c1=O` [Example 177, 2-[(2E)-2-(aminomethyl)-3-fluoroprop-2-en-1-yl]-4-{6-[4-(1,2,5-oxadiazol-3-yl)phenyl]pyridin-2-yl}-2,4-dihydro-3H-1,2,4-triazol-3-one hydrochloride], the IC50 in assay [1] (1 mM benzylamine substrate) was 1900 nM; on recombinant human VAP-1 it was 0.5 nM; in assay [2] (0.5 mM tyramine substrate), more than 100000 nM; in assay [3] (1 mM putrescine substrate), 2.6 nM.

`NC/C(=C\F)Cn1ncn(-c2c(F)cc(Br)cc2F)c1=O` [Example 22, 2-[(2E)-2-(aminomethyl)-3-fluoroprop-2-en-1-yl]-4-(4-bromo-2,6-difluorophenyl)-2,4-dihydro-3H-1,2,4-triazol-3-one hydrochloride]: the IC50 in assay [1] (1 mM benzylamine) stood at 146 nM; at recombinant human VAP-1 (30 min preincubation at 37° C.), 1.4 nM; in assay [2] (0.5 mM tyramine), 12000 nM; in assay [3] (setting [4]), 420 nM.

Consider `NC/C(=C\F)Cn1ncn(-c2cccc(-c3ccc(-c4noc(C5CC5)n4)cc3)n2)c1=O` [Example 178, 2-[(2E)-2-(aminomethyl)-3-fluoroprop-2-en-1-yl]-4-{6-[4-(5-cyclopropyl-1,2,4-oxadiazol-3-yl)phenyl]pyridin-2-yl}-2,4-dihydro-3H-1,2,4-triazol-3-one hydrochloride], for which the IC50 in assay [1] (1 mM benzylamine substrate) was 5490 nM; on recombinant human VAP-1, 1.4 nM; in assay [2] (0.5 mM tyramine substrate), 74000 nM; in assay [3] (1 mM putrescine substrate) it was less than 10 nM.

In the case of `NC/C(=C\F)Cn1ncn(-c2cccc(Br)c2)c1=O` [Example 4, 2-[(2E)-2-(aminomethyl)-3-fluoroprop-2-en-1-yl]-4-(3-bromophenyl)-2,4-dihydro-3H-1,2,4-triazol-3-one hydrochloride], the half-inhibitory concentration (IC50) in assay [1] (1 mM benzylamine) is 175 nM; on recombinant human VAP-1 (30 min preincubation at 37° C.), 1.2 nM; in assay [2] (0.5 mM tyramine), more than 100000 nM; in assay [3] (setting [4]), 90 nM.

Take `NC/C(=C\F)Cn1ncn(-c2cc(/C=C/c3ccccc3)ccn2)c1=O` [Example 236, 2-[(2E)-2-(aminomethyl)-3-fluoroprop-2-en-1-yl]-4-{4-[(E)-2-phenylethenyl]pyridin-2-yl}-2,4-dihydro-3H-1,2,4-triazol-3-one hydrochloride]: the IC50 was 16 nM in assay [1] (1 mM benzylamine substrate), 0.8 nM on recombinant human VAP-1, more than 10000 nM in assay [2] (0.5 mM tyramine substrate) and 6.4 nM in assay [3] (1 mM putrescine substrate).

`NC/C(=C/F)Cn1ncn(-c2cccc(-c3ccc4c(c3)OCO4)c2)c1=O` [Example 92, 2-[(2Z)-2-(aminomethyl)-3-fluoroprop-2-en-1-yl]-4-[3-(1,3-benzodioxol-5-yl)phenyl]-2,4-dihydro-3H-1,2,4-triazol-3-one hydrochloride]: the IC50 in assay [1] (1 mM benzylamine) was found to be 1350 nM; at recombinant human VAP-1 (30 min preincubation at 37° C.) it was 1.1 nM; in assay [2] (0.5 mM tyramine), 9.69 nM; in assay [3] (setting [4]), 41 nM.
